Measured values published in US20180087079A1, “METHODS OF USING CELL-CYCLE INHIBITORS TO MODULATE ONE OR MORE PROPERTIES OF A CELL CULTURE” (AMGEN INC., priority 2013, published 2018).

How the values were obtained:
[1] = test system: transfected CHO cells expressing recombinant human monoclonal antibody (cell line 2); assay: 24-deep well culture, cell line 2: VCD, viability, titer, qP; format: cell-based, Chinese hamster
Method: (§1) Transfected CHO cells expressing a recombinant human monoclonal antibody (mAb) are cultured in 24-deep well plates with seeding density at 1×10^7/mL for five days. At certain time periods, samples of the cultures are taken and evaluated for viable cell density (VCD; expressed in 10^6 cells/mL); percent viability (as determined by trypan blue exclusion); titer of recombinant protein (expressed in grams of protein per liter of culture, or g/L, as determined by Protein A affinity HPLC); qP, or specific productivity (expressed in picograms of recombinant protein per cell per day, or pg/c/d), the presence or absence of high molecular weight substances (usually an indicator of protein aggregation; expressed as % of the total protein); and the relative percentage of Mannose 5, a major intermediate glyco-form that attaches to N297 of the mAb. N-linked glycosylation has an impact on the tertiary structure of the antibody and may affect Fc mediated antibody effector functions. The majority of the human Fc glycans are complex biantennary structures with galactose as the prevalent terminal sugar. Immature glyco-forms, such as high-mannose glycol-forms (Man5-9), are of concern due to potential higher plasma clearance rate (as compared to the clearance rate of complex glycan linked mAbs).
(§2) Compounds are further evaluated essentially as described in Example 2 herein. Briefly, transfected CHO cells expressing recombinant human monoclonal antibody (mAb; two different cell lines expressing two different mAb, referred to as cell line 1 and cell line 2) are cultured in 24-deep well plates in the presence or absence of the compounds. At specified time points, samples of the cultures are taken and evaluated for viable cell density (VCD; expressed in 10^6 cells/mL); percent viability (as determined by any method known in the art); titer of recombinant protein (expressed in grams of protein per liter of culture, or g/L, as determined by Protein A affinity HPLC); qP, or specific productivity (expressed in picograms of recombinant protein per cell per day, or pg/c/d). Additional parameters measure include the presence or absence of high molecular weight substances (usually an indicator of protein aggregation; expressed as % of the total protein); and the relative percentage of Mannose 5. For comparison purposes, Compounds A and B, which had been previously tested, were tested again.

Colo205 = assay: [14C]-thymidine incorporation cell proliferation inhibition assay; format: cell-based; conditions: Homo sapiens, COLO 205, 72 hour incubation
Method: The cell proliferation inhibition potency of the cell cycle inhibitors was determined by using a [^14C]-thymidine incorporation assay. Exponentially growing cells (Colo205) were seeded in a 96-well Cytostar T plate (GE Healthcare Biosciences) at a density of 5×10^3 cells/well and incubated overnight. Serially diluted compounds and 0.1 μCi of [^14C]-thymidine (GE Healthcare Biosciences) were added to each well on the following day. After 72 hour incubation, isotope incorporation was determined with a β plate counter (Wallac). IC50 values of the compounds in the above assays were determined by non-linear regression analysis using Prism (GraphPad Software).

CDK4/Cyclin D1 = target: T1, CDK4/Cyclin D1 (Homo sapiens, UniProt P11802); assay: CDK4 filtration kinase assay; format: biochemical; conditions: CDK4/Cyclin D1, Rb fragment substrate, [33P]-ATP
T1 construct: purchased Cell Signaling Technology
T1 sequence (P11802 whole entry, species assumed, the tested form may be a part): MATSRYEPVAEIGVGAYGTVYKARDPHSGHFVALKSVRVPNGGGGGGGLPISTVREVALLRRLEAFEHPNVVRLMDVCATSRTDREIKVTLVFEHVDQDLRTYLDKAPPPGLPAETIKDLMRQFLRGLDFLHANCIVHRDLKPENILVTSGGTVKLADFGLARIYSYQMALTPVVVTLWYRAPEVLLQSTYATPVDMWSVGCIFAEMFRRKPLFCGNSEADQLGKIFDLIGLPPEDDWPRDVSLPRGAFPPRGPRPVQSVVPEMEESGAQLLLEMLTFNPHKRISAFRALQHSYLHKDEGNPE
T1 sequence (P24385 whole entry partner, species assumed, the tested form may be a part): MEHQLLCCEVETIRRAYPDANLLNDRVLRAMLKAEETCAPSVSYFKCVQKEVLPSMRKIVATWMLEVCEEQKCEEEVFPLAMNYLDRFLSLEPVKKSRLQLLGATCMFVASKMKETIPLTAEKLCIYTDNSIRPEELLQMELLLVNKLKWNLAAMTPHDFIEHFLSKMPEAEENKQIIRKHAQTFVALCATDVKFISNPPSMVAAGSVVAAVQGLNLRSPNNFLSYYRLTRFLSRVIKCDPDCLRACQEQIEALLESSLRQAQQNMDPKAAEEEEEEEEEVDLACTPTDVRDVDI
Method: The CDK4 inhibitory activity of the cell cycle inhibitors was determined with a filtration kinase assay. The compounds, kinase and substrate diluted in the kinase buffer (20 mM Tris, pH7.4, 50 mM NaCl, 1 mM DTT, 0.1% BSA) were sequentially added to a 96-well Multiscreen HTS filtration plate (Millipore). The final 100 μL reaction mixture in each well contained 0.3 μg of CDK4/Cyclin D1 (Cell Signaling Technology), 1 μg of Rb fragment (aa773-928, Millipore) for the CDK4 assay and 1 μCi of [^33P]-ATP. The mixture was incubated at room temperature for 1 hour. The proteins in the reaction were then precipitated and washed with cold TCA solution using an aspiration/filtration vacuum system. The plates were dried at room temperature, and the retained radioactivity was measured by scintillation counting. IC50 values of the compounds in the above assays were determined by non-linear regression analysis using Prism (GraphPad Software).

[2] = test system: transfected CHO cells expressing recombinant human monoclonal antibody (cell line 1); assay: 24-deep well culture, cell line 1: VCD, viability, titer, qP; format: cell-based, Chinese hamster; conditions: for Titer / VCD / Viability / qP: Cell Line 1; for effect on viability / growth arrest: summary of Table 2
Method: as §1, §2

With CN(C)C1CCN(c2ccc(Nc3ncc4c(n3)C3(C=CC(C)(C)CC3)c3cnccc3-4)nc2)CC1 (centres unmarked) [Compound L, N-(5-(4-(dimethylamino)piperidin-1-yl)pyridin-2-yl)-4,4-dimethylspiro[cyclohex[2]ene-1,9′-pyrido[4′,3′:3,4]cyclopenta[1,2-d]pyrimidin]-2′-amine] the Titer ([1]; 1.2 microM, D 1) was 0.28 g/L, the VCD ([1]; 1.2 microM, D 1) was 11.76 e6/mL and the Viability ([1]; 1.2 microM, D 1) was 94.88%. For the same compound, the qP ([1]; 1.2 microM, D 1) was 23.81 pg/c/d, the Titer ([1]; 1.2 microM, D 2) was 0.49 g/L and the VCD ([1]; 1.2 microM, D 2) was 13.63 e6/mL. For the same compound, the Viability ([1]; 1.2 microM, D 2) was 92.63%, the qP ([1]; 1.2 microM, D 2) was 35.94 pg/c/d and the Titer ([1]; 1.2 microM, D 3) was 0.58 g/L. The VCD ([1]; 1.2 microM, D 3) was 18.56 e6/mL, the Viability ([1]; 1.2 microM, D 3) was 92.09% and the qP ([1]; 1.2 microM, D 3) was 31.42 pg/c/d. The Titer ([1]; 1.2 microM, D 4) was 0.70 g/L, the VCD ([1]; 1.2 microM, D 4) was 26.40 e6/mL and the Viability ([1]; 1.2 microM, D 4) was 91.17%. The qP ([1]; 1.2 microM, D 4) was 26.64 pg/c/d, the Titer ([1]; 2.4 microM, D 1) was 0.28 g/L and the VCD ([1]; 2.4 microM, D 1) was 11.43 e6/mL. The Viability ([1]; 2.4 microM, D 1) was 94.24%, the qP ([1]; 2.4 microM, D 1) was 24.20 pg/c/d and the Titer ([1]; 2.4 microM, D 2) was 0.47 g/L. The VCD ([1]; 2.4 microM, D 2) was 12.95 e6/mL, the Viability ([1]; 2.4 microM, D 2) was 91.47% and the qP ([1]; 2.4 microM, D 2) was 36.29 pg/c/d. For the same compound, the Titer ([1]; 2.4 microM, D 3) was 0.60 g/L, the VCD ([1]; 2.4 microM, D 3) was 16.19 e6/mL and the Viability ([1]; 2.4 microM, D 3) was 90.68%. The qP ([1]; 2.4 microM, D 3) was 37.05 pg/c/d, the Titer ([1]; 2.4 microM, D 4) was 0.76 g/L and the VCD ([1]; 2.4 microM, D 4) was 24.27 e6/mL. It also gave a Viability ([1]; 2.4 microM, D 4) of 91.43%, a qP ([1]; 2.4 microM, D 4) of 31.18 pg/c/d and an IC50 (Colo205) of 23.5 nM. It also gave an IC50 (CDK4/Cyclin D1) of 1.4 nM.
For CC1CCC(n2c3cnccc3c3cnc(Nc4ccc(N5CCNC(C)C5)nn4)nc32)CC1 (centres unmarked) [Compound D, 9-(4-methylcyclohexyl)-N-(6-(3-methylpiperazin-1-yl)pyridazin-3-yl)-9H-pyrido[4′,3′:4,5]pyrrolo[2,3-d]pyrimidin-2-amine], the Titer ([2]; 2.5 microM, D 1) was 0.49 g/L, the VCD ([2]; 2.5 microM, D 1) was 11.85 e6/mL and the Viability ([2]; 2.5 microM, D 1) was 95.50%. For the same compound, the qP ([2]; 2.5 microM, D 1) was 41.37 pg/c/d, the Titer ([2]; 2.5 microM, D 2) was 0.73 g/L and the VCD ([2]; 2.5 microM, D 2) was 10.72 e6/mL. The Viability ([2]; 2.5 microM, D 2) was 87.30%, the qP ([2]; 2.5 microM, D 2) was 67.79 pg/c/d and the Titer ([2]; 2.5 microM, D 3) was 0.98 g/L. For the same compound, the VCD ([2]; 2.5 microM, D 3) was 11.11 e6/mL, the Viability ([2]; 2.5 microM, D 3) was 84.83% and the qP ([2]; 2.5 microM, D 3) was 87.94 pg/c/d. For the same compound, the Titer ([2]; 2.5 microM, D 4) was 1.27 g/L, the VCD ([2]; 2.5 microM, D 4) was 14.71 e6/mL and the Viability ([2]; 2.5 microM, D 4) was 82.00%. The qP ([2]; 2.5 microM, D 4) was 86.32 pg/c/d, the Titer ([2]; 5 microM, D 1) was 0.49 g/L and the VCD ([2]; 5 microM, D 1) was 11.76 e6/mL. For the same compound, the Viability ([2]; 5 microM, D 1) was 95.92%, the qP ([2]; 5 microM, D 1) was 41.95 pg/c/d and the Titer ([2]; 5 microM, D 2) was 0.70 g/L. The VCD ([2]; 5 microM, D 2) was 10.17 e6/mL, the Viability ([2]; 5 microM, D 2) was 86.10% and the qP ([2]; 5 microM, D 2) was 69.17 pg/c/d. The Titer ([2]; 5 microM, D 3) was 0.87 g/L, the VCD ([2]; 5 microM, D 3) was 9.71 e6/mL and the Viability ([2]; 5 microM, D 3) was 79.43%. The qP ([2]; 5 microM, D 3) was 89.92 pg/c/d, the Titer ([2]; 5 microM, D 4) was 1.11 g/L and the VCD ([2]; 5 microM, D 4) was 11.94 e6/mL. For the same compound, the Viability ([2]; 5 microM, D 4) was 76.30%, the qP ([2]; 5 microM, D 4) was 92.69 pg/c/d and the Titer ([2]; 10 microM, D 1) was 0.49 g/L. The VCD ([2]; 10 microM, D 1) was 11.35 e6/mL, the Viability ([2]; 10 microM, D 1) was 94.69% and the qP ([2]; 10 microM, D 1) was 43.16 pg/c/d. For the same compound, the Titer ([2]; 10 microM, D 2) was 0.67 g/L, the VCD ([2]; 10 microM, D 2) was 9.65 e6/mL and the Viability ([2]; 10 microM, D 2) was 82.20%. The qP ([2]; 10 microM, D 2) was 69.81 pg/c/d, the Titer ([2]; 10 microM, D 3) was 0.86 g/L and the VCD ([2]; 10 microM, D 3) was 9.31 e6/mL. For the same compound, the Viability ([2]; 10 microM, D 3) was 76.69%, the qP ([2]; 10 microM, D 3) was 92.01 pg/c/d and the Titer ([2]; 10 microM, D 4) was 0.99 g/L. The VCD ([2]; 10 microM, D 4) was 10.04 e6/mL, the Viability ([2]; 10 microM, D 4) was 70.89% and the qP ([2]; 10 microM, D 4) was 98.63 pg/c/d. For the same compound, the effect on viability [2] was “minimal effects on viability”, the growth arrest [2] was “reasonably sustained growth arrest” and the IC50 (Colo205) was 29.9 nM. For the same compound, the IC50 (CDK4/Cyclin D1) was 1.86 nM.
CC1CCC(n2c3cnccc3c3cnc(Nc4ccc(N5CCC6(CC5)CCS(=O)(=O)C6)nn4)nc32)CC1 (centres unmarked) [Compound E, 8-(6-((9-(4-methylcyclohexyl)-9H-pyrido[4′,3′:4,5]pyrrolo[2,3-d]pyrimidin-2-yl)amino)pyridazin-3-yl)-2-thia-8-azaspiro[4.5]decane 2,2-dioxide] was tested, and the Titer ([2]; 5 microM, D 1) was 0.47 g/L, the VCD ([2]; 5 microM, D 1) was 10.31 e6/mL and the Viability ([2]; 5 microM, D 1) was 95.94%. For the same compound, the qP ([2]; 5 microM, D 1) was 45.61 pg/c/d, the Titer ([2]; 5 microM, D 2) was 0.67 g/L and the VCD ([2]; 5 microM, D 2) was 9.37 e6/mL. It also gave a Viability ([2]; 5 microM, D 2) of 85.43%, a qP ([2]; 5 microM, D 2) of 71.53 pg/c/d and a Titer ([2]; 5 microM, D 3) of 0.85 g/L. The VCD ([2]; 5 microM, D 3) was 10.05 e6/mL, the Viability ([2]; 5 microM, D 3) was 79.09% and the qP ([2]; 5 microM, D 3) was 84.92 pg/c/d. For the same compound, the Titer ([2]; 5 microM, D 4) was 0.98 g/L, the VCD ([2]; 5 microM, D 4) was 10.39 e6/mL and the Viability ([2]; 5 microM, D 4) was 72.71%. The qP ([2]; 5 microM, D 4) was 94.68 pg/c/d, the Titer ([2]; 10 microM, D 1) was 0.48 g/L and the VCD ([2]; 10 microM, D 1) was 9.99 e6/mL. For the same compound, the Viability ([2]; 10 microM, D 1) was 94.71%, the qP ([2]; 10 microM, D 1) was 47.72 pg/c/d and the Titer ([2]; 10 microM, D 2) was 0.66 g/L. The VCD ([2]; 10 microM, D 2) was 9.29 e6/mL, the Viability ([2]; 10 microM, D 2) was 83.23% and the qP ([2]; 10 microM, D 2) was 71.04 pg/c/d. The Titer ([2]; 10 microM, D 3) was 0.83 g/L, the VCD ([2]; 10 microM, D 3) was 9.55 e6/mL and the Viability ([2]; 10 microM, D 3) was 76.37%. For the same compound, the qP ([2]; 10 microM, D 3) was 87.30 pg/c/d, the Titer ([2]; 10 microM, D 4) was 0.96 g/L and the VCD ([2]; 10 microM, D 4) was 10.29 e6/mL. For the same compound, the Viability ([2]; 10 microM, D 4) was 72.16%, the qP ([2]; 10 microM, D 4) was 92.97 pg/c/d and the effect on viability [2] was “greater (but still modest) decreases in viability”. The growth arrest [2] was “more sustained growth arrest”, the IC50 (Colo205) was 38.4 nM and the IC50 (CDK4/Cyclin D1) was 4.45 nM.
